Earlier results on one molecule are cited in patent publication US8980874B2, “Method and composition for treating diabetic ketoacidosis” (Midwestern University, priority 2009, dated 2015).

Data set [1] deals with BBB permeability. The note with it: repeated intracisternal administration of ET-1 in dogs and rats; cited from earlier work.
For data set [2], the system named is rat model of embolic stroke. The note with it: rat model of embolic stroke where rtPA was used; cited from earlier work.

`CC1(C)CC[C@]2(C(=O)[O-])CC[C@]3(COC(=O)/C=C/c4cc([O-])ccc4NC(=O)/C=C/C(=O)O)C(=CC[C@@H]4[C@@]5(C)CCC(=O)C(C)(C)[C@@H]5CC[C@]43C)[C@@H]2C1.[Na+].[Na+]` [S-0139]: the “effect on ET-1 induced increase in BBB permeability” value in data set [1] is “blocked”. For the same molecule, the “neuroprotection / rtPA evoked disruption of BBB” value in data set [2] is on record as “provided neuroprotection by suppressing rtPA evoked disruption of BBB”.
